Assay results taken from the NIST ThermoML archive (doi:10.1016/j.tca.2015.01.012).
Several values for one entry are separate records, joined by “and”; a condition that tells them apart may be missing. Equal values may be shown once.

Assay: molar heat capacity at constant pressure
Details: 101.33 kPa, Crystal, Small (less than 1 g) adiabatic calorimetry

O=C(O)c1cccnc1 [3-carboxylpyridine]
Details | molar heat capacity at constant pressure
1 K | 0.0015 J/K/mol
2 K | 0.0121 J/K/mol
3 K | 0.0409 J/K/mol
4 K | 0.0968 J/K/mol
5 K | 0.1891 J/K/mol
5.3 K | 0.2521 J/K/mol
5.53 K | 0.2833 J/K/mol
5.71 K | 0.3119 J/K/mol
5.9 K | 0.3323 J/K/mol
6 K | 0.3359 J/K/mol
6.07 K | 0.3625 J/K/mol
6.23 K | 0.3927 J/K/mol
6.39 K | 0.3921 J/K/mol
6.55 K | 0.4232 J/K/mol
6.7 K | 0.4579 J/K/mol
6.86 K | 0.5025 J/K/mol
7 K | 0.5397 J/K/mol
7.03 K | 0.5557 J/K/mol
7.19 K | 0.5983 J/K/mol
7.36 K | 0.6211 J/K/mol
7.52 K | 0.6706 J/K/mol
7.69 K | 0.6993 J/K/mol
7.84 K | 0.7188 J/K/mol
8 K | 0.7924 J/K/mol and 0.8151 J/K/mol
8.17 K | 0.8389 J/K/mol
8.34 K | 0.8744 J/K/mol
8.51 K | 0.9394 J/K/mol
8.68 K | 1.001 J/K/mol
8.86 K | 1.063 J/K/mol
9 K | 1.099 J/K/mol
9.03 K | 1.093 J/K/mol
9.21 K | 1.135 J/K/mol
9.38 K | 1.246 J/K/mol
9.56 K | 1.315 J/K/mol
9.73 K | 1.428 J/K/mol
9.92 K | 1.479 J/K/mol
10 K | 1.48 J/K/mol
10.17 K | 1.542 J/K/mol
10.5 K | 1.674 J/K/mol
10.82 K | 1.86 J/K/mol
11.15 K | 2.012 J/K/mol
11.48 K | 2.15 J/K/mol
11.83 K | 2.356 J/K/mol
12.19 K | 2.553 J/K/mol
12.55 K | 2.742 J/K/mol
12.92 K | 2.969 J/K/mol
13.29 K | 3.19 J/K/mol
13.67 K | 3.425 J/K/mol
14.06 K | 3.628 J/K/mol
14.45 K | 3.87 J/K/mol
14.84 K | 4.121 J/K/mol
15 K | 4.221 J/K/mol
15.23 K | 4.365 J/K/mol
15.63 K | 4.629 J/K/mol
16.04 K | 4.894 J/K/mol
16.44 K | 5.19 J/K/mol
16.85 K | 5.494 J/K/mol
17.27 K | 5.794 J/K/mol
17.67 K | 6.094 J/K/mol
18.09 K | 6.421 J/K/mol
18.52 K | 6.77 J/K/mol
18.95 K | 7.125 J/K/mol
19.38 K | 7.466 J/K/mol
19.82 K | 7.809 J/K/mol
20 K | 7.998 J/K/mol
20.68 K | 8.601 J/K/mol
22 K | 9.701 J/K/mol
23.36 K | 10.88 J/K/mol
24.74 K | 12.09 J/K/mol
25 K | 12.34 J/K/mol
26.14 K | 13.4 J/K/mol
27.57 K | 14.79 J/K/mol
29.02 K | 16.15 J/K/mol
30 K | 17.11 J/K/mol
30.49 K | 17.6 J/K/mol
31.97 K | 18.99 J/K/mol
33.48 K | 20.37 J/K/mol
34.99 K | 21.77 J/K/mol
35 K | 21.76 J/K/mol
36.53 K | 23.11 J/K/mol
38.07 K | 24.44 J/K/mol
39.63 K | 25.75 J/K/mol
40 K | 26.08 J/K/mol
41.2 K | 27.05 J/K/mol
42.78 K | 28.38 J/K/mol
44.36 K | 29.6 J/K/mol
45 K | 30.14 J/K/mol
45.95 K | 30.92 J/K/mol
47.56 K | 32.14 J/K/mol
49.17 K | 33.43 J/K/mol
50 K | 33.99 J/K/mol
50.79 K | 34.59 J/K/mol
52.41 K | 35.8 J/K/mol
54.04 K | 36.96 J/K/mol
55.68 K | 38.11 J/K/mol
57.33 K | 39.19 J/K/mol
58.97 K | 40.29 J/K/mol
60 K | 40.99 J/K/mol
60.63 K | 41.38 J/K/mol
62.28 K | 42.42 J/K/mol
63.94 K | 43.46 J/K/mol
65.61 K | 44.41 J/K/mol
67.28 K | 45.36 J/K/mol
68.95 K | 46.38 J/K/mol
70 K | 47 J/K/mol
70.62 K | 47.37 J/K/mol
72.71 K | 48.52 J/K/mol
75.22 K | 49.8 J/K/mol
77.73 K | 51.14 J/K/mol
80 K | 52.23 J/K/mol
80.25 K | 52.35 J/K/mol
80.98 K | 52.79 J/K/mol
82.78 K | 53.53 J/K/mol
84.21 K | 54.31 J/K/mol
85.31 K | 54.74 J/K/mol
86.73 K | 55.5 J/K/mol
87.85 K | 55.91 J/K/mol
89.25 K | 56.68 J/K/mol
90 K | 56.95 J/K/mol
90.39 K | 57.08 J/K/mol
91.78 K | 57.81 J/K/mol
94.31 K | 59 J/K/mol
96.84 K | 60.11 J/K/mol
99.38 K | 61.16 J/K/mol
100 K | 61.37 J/K/mol
101.92 K | 62.18 J/K/mol
104.47 K | 63.23 J/K/mol
107.02 K | 64.34 J/K/mol
109.57 K | 65.35 J/K/mol
110 K | 65.59 J/K/mol
112.12 K | 66.36 J/K/mol
114.68 K | 67.47 J/K/mol
117.24 K | 68.52 J/K/mol
119.81 K | 69.55 J/K/mol
120 K | 69.67 J/K/mol
122.39 K | 70.55 J/K/mol
124.96 K | 71.54 J/K/mol
127.53 K | 72.56 J/K/mol
130 K | 73.64 J/K/mol
130.1 K | 73.62 J/K/mol
132.68 K | 74.7 J/K/mol
135.26 K | 75.71 J/K/mol
137.83 K | 76.72 J/K/mol
140 K | 77.53 J/K/mol
140.41 K | 77.7 J/K/mol
142.99 K | 78.8 J/K/mol
145.58 K | 79.79 J/K/mol
148.16 K | 80.74 J/K/mol
150 K | 81.39 J/K/mol
150.75 K | 81.72 J/K/mol
153.33 K | 82.67 J/K/mol
155.92 K | 83.7 J/K/mol
158.51 K | 84.71 J/K/mol
160 K | 85.26 J/K/mol
161.1 K | 85.73 J/K/mol
163.71 K | 86.79 J/K/mol
166.31 K | 87.79 J/K/mol
168.9 K | 88.81 J/K/mol
170 K | 89.19 J/K/mol
171.49 K | 89.87 J/K/mol
174.09 K | 90.88 J/K/mol
176.68 K | 91.97 J/K/mol
179.28 K | 92.85 J/K/mol
180 K | 93.23 J/K/mol
181.87 K | 93.96 J/K/mol
184.47 K | 95.03 J/K/mol
187.07 K | 96.11 J/K/mol
189.66 K | 97.14 J/K/mol
190 K | 97.4 J/K/mol
192.26 K | 98.33 J/K/mol
194.86 K | 99.43 J/K/mol
197.45 K | 100.6 J/K/mol
200 K | 101.7 J/K/mol
200.05 K | 101.7 J/K/mol
202.65 K | 102.8 J/K/mol
205.28 K | 104.1 J/K/mol
207.88 K | 105.2 J/K/mol
210 K | 106.3 J/K/mol
210.48 K | 106.4 J/K/mol
213.09 K | 107.6 J/K/mol
215.69 K | 109 J/K/mol
218.3 K | 110 J/K/mol
220 K | 110.9 J/K/mol
220.91 K | 111.3 J/K/mol
223.52 K | 112.6 J/K/mol
226.13 K | 113.8 J/K/mol
228.74 K | 115.2 J/K/mol
230 K | 115.8 J/K/mol
231.36 K | 116.7 J/K/mol
233.98 K | 117.7 J/K/mol
236.59 K | 119.1 J/K/mol
239.21 K | 120.4 J/K/mol
240 K | 120.8 J/K/mol
241.83 K | 121.8 J/K/mol
244.45 K | 123.1 J/K/mol
247.11 K | 124.5 J/K/mol
249.74 K | 125.8 J/K/mol
250 K | 125.8 J/K/mol
252.36 K | 127.1 J/K/mol
254.98 K | 128.5 J/K/mol
257.61 K | 129.8 J/K/mol
260 K | 131 J/K/mol
260.24 K | 131.1 J/K/mol
262.86 K | 132.5 J/K/mol
265.49 K | 134 J/K/mol
268.12 K | 135.3 J/K/mol
270 K | 136.3 J/K/mol
270.75 K | 136.7 J/K/mol
273.15 K | 137.9 J/K/mol
273.38 K | 138.2 J/K/mol
276.01 K | 139.3 J/K/mol
278.63 K | 140.8 J/K/mol
280 K | 141.6 J/K/mol
281.26 K | 142.3 J/K/mol
283.88 K | 143.5 J/K/mol
286.5 K | 144.8 J/K/mol
289.15 K | 146.5 J/K/mol
290 K | 146.9 J/K/mol
291.77 K | 147.8 J/K/mol
294.38 K | 149.3 J/K/mol
296.99 K | 150.7 J/K/mol
298.15 K | 151.3 J/K/mol
299.59 K | 152.1 J/K/mol
300 K | 152.3 J/K/mol
302.64 K | 153.7 J/K/mol
306.07 K | 155.5 J/K/mol
309.49 K | 157.1 J/K/mol
310 K | 157.7 J/K/mol
312.9 K | 159 J/K/mol
316.3 K | 161.2 J/K/mol
319.71 K | 162.9 J/K/mol
320 K | 163.1 J/K/mol
323.11 K | 164.8 J/K/mol
326.5 K | 166.8 J/K/mol
329.88 K | 168.6 J/K/mol
330 K | 168.5 J/K/mol
333.26 K | 170.6 J/K/mol
336.64 K | 172.4 J/K/mol
340 K | 174 J/K/mol
343.36 K | 175.7 J/K/mol
346 K | 177.3 J/K/mol
346.71 K | 177.4 J/K/mol
